Experimental data taken from patent US20050245399A1, “Pyrazole derivatives as herbicidal compositions containing them” (ISHIHARA SANGYO KAISHA, LTD., priority 2004, published 2005).

How the values were obtained:
Assay type in all cases: in vivo
[1] = tested on: rice (Oryza sativa L.): ORYSA; test: Test Example 1 pre-emergence herbicidal activity, ORYSA; details: visually observed 20th to 23rd day after application
Outline: (§1)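 Pots of upland soil were sown, and one day later WP or EC formulations at set active-ingredient rates were sprayed pre-emergence in 500 L/ha water. Growth control scored visually 20–23 days after application, 0 (as untreated) to 100 (complete kill).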

[2] = tested on: corn (Zea mays L.), ZEAMX; test: Test Example 2 post-emergence (foliage treatment) herbicidal activity, ZEAMX; details: 63 g a.i./ha
Outline: (§2)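 Each species was evaluated for growth suppression by eye, 0% matching untreated and 100% meaning death, some 20 to 23 days after a single post-emergence foliar treatment applied in 500 L/ha of water carrying 0.1% (v/v) agricultural spreader.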

[3] = tested on: wheat (Triticum aestivum L.): TRZAX; test: Test Example 1 pre-emergence herbicidal activity, TRZAX; details: visually observed 20th to 23rd day after application
Outline: as §1

[4] = tested on: rice (Oryza sativa L.), ORYSA; test: Test Example 2 post-emergence (foliage treatment) herbicidal activity, ORYSA; details: 63 g a.i./ha
Outline: (§3)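 Plants grown in upland soil pots were sprayed on foliage at set leaf stages (ECHCG 1.1-2.1, DIGSA 1.0-2.0, AMARE 0.1-1.5, ORYSA 1.0-2). Formulated compound was applied at predetermined active-ingredient amounts in 500 L/ha water with 0.1% (v/v) spreader. Growth control (0–100%) was visually scored 20–23 days later.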

[5] = tested on: green foxtail (Setaria viridis L.): SETVI; test: Test Example 1 pre-emergence herbicidal activity, SETVI; details: visually observed 20th to 23rd day after application
Outline: as §1

[6] = tested on: prickly sida (Sida spinosa L.): SEDSP; test: Test Example 1 pre-emergence herbicidal activity, SIDSP; details: visually observed 20th to 23rd day after application
Outline: as §1

[7] = tested on: crabgrass (Digitaria sanguinalis L.): DIGSA; test: Test Example 1 pre-emergence herbicidal activity, DIGSA; details: visually observed 20th to 23rd day after application
Outline: as §1

[8] = tested on: green foxtail (Setaria viridis L.), SETVI; test: Test Example 2 post-emergence (foliage treatment) herbicidal activity, SETVI; details: 63 g a.i./ha
Outline: as §2

[9] = tested on: redroot pigweed (Amaranthus retroflexus L.): AMARE; test: Test Example 1 pre-emergence herbicidal activity, AMARE; details: visually observed 20th to 23rd day after application
Outline: as §1

[10] = tested on: corn (Zea mays L.): ZEAMX; test: Test Example 1 pre-emergence herbicidal activity, ZEAMX; details: visually observed 20th to 23rd day after application
Outline: as §1

[11] = tested on: wheat (Triticum aestivum L.), TRZAX; test: Test Example 2 post-emergence (foliage treatment) herbicidal activity, TRZAX; details: 63 g a.i./ha
Outline: as §2

[12] = tested on: soybean (Glycine max Merr.), GLXMA; test: Test Example 2 post-emergence (foliage treatment) herbicidal activity, GLXMA; details: 63 g a.i./ha
Outline: as §2

[13] = tested on: crabgrass (Digitaria sanguinalis L.), DIGSA; test: Test Example 2 post-emergence (foliage treatment) herbicidal activity, DIGSA; details: 63 g a.i./ha
Outline: as §3

[14] = tested on: redroot pigweed (Amaranthus retroflexus L.), AMARE; test: Test Example 2 post-emergence (foliage treatment) herbicidal activity, AMARE; details: 63 g a.i./ha
Outline: as §3

[15] = tested on: barnyardgrass (Echinochloa crus-galli L.): ECHCG; test: Test Example 1 pre-emergence herbicidal activity, ECHCG; details: visually observed 20th to 23rd day after application
Outline: as §1

[16] = tested on: soybean (Glycine max Merr.): GLXMA; test: Test Example 1 pre-emergence herbicidal activity, GLXMA; details: visually observed 20th to 23rd day after application
Outline: as §1

[17] = tested on: velvetleaf (Abutilon theophrasti), ABUTH; test: Test Example 2 post-emergence (foliage treatment) herbicidal activity, ABUTH; details: 63 g a.i./ha
Outline: as §2

[18] = tested on: barnyardgrass (Echinochloa crus-galli L.), ECHCG; test: Test Example 2 post-emergence (foliage treatment) herbicidal activity, ECHCG; details: 63 g a.i./ha
Outline: as §3

[19] = tested on: velvetleaf (Abutilon theophrasti): ABUTH; test: Test Example 1 pre-emergence herbicidal activity, ABUTH; details: visually observed 20th to 23rd day after application
Outline: as §1

[20] = tested on: prickly sida (Sida spinosa L.), SIDSP; test: Test Example 2 post-emergence (foliage treatment) herbicidal activity, SIDSP; details: 63 g a.i./ha
Outline: as §2

Row | Structure (SMILES) | Pre-emergence Herbicidal Activity ORYSA (growth controlling degree) ([1]; Rate 63 g a.i./ha) [%] | growth controlling degree, ZEAMX [2] [%] | Pre-emergence Herbicidal Activity TRZAX (growth controlling degree) ([3]; Rate 63 g a.i./ha) [%] | growth controlling degree, ORYSA [4] [%] | Pre-emergence Herbicidal Activity SETVI (growth controlling degree) ([5]; Rate 63 g a.i./ha) [%] | Pre-emergence Herbicidal Activity SIDSP (growth controlling degree) ([6]; Rate 63 g a.i./ha) [%] | Pre-emergence Herbicidal Activity DIGSP (growth controlling degree) ([7]; Rate 63 g a.i./ha) [%] | growth controlling degree, SETVI [8] [%] | Pre-emergence Herbicidal Activity AMARE (growth controlling degree) ([9]; Rate 63 g a.i./ha) [%] | Pre-emergence Herbicidal Activity ZEAMX (growth controlling degree) ([10]; Rate 63 g a.i./ha) [%] | growth controlling degree, TRZAX [11] [%] | growth controlling degree, GLXMA [12] [%] | growth controlling degree, DIGSP [13] [%] | growth controlling degree, AMARE [14] [%] | Pre-emergence Herbicidal Activity ECHCG (growth controlling degree) ([15]; Rate 63 g a.i./ha) [%] | Pre-emergence Herbicidal Activity GLXMA (growth controlling degree) ([16]; Rate 63 g a.i./ha) [%] | growth controlling degree, ABUTH [17] [%] | growth controlling degree, ECHCO [18] [%] | Pre-emergence Herbicidal Activity ABUTH (growth controlling degree) ([19]; Rate 63 g a.i./ha) [%] | growth controlling degree, SIDSP [20] [%] | other results
1 | C#CCOC(=O)Nc1c(OC)c(Cl)cc(F)c1-c1nn(C)c(OC(F)F)c1Cl [Compound 1-74] | 50 | 30 | 30 | 95 | 100 | 100 | 100 | 100 | 100 | 10 | 50 | 60 | 70 | 100 | 90 | 0 | 100 | 98 | 100 | 100 | 
2 | COc1c(Cl)cc(F)c(-c2nn(C)c(OC(F)F)c2Cl)c1NC(=O)C(C)(C)Oc1ccccc1 [Compound 1-38] | 0 | 10 | 0 | 40 | 20 | 0 | 10 | 50 | 20 | 0 | 10 | 30 | 20 | 100 | 0 | 0 | 100 | 50 | 0 | 100 | 
3 | CCOC(=O)C(C)N(C=O)c1c(OC)c(Cl)cc(F)c1-c1nn(C)c(OC(F)F)c1Cl (stereo not drawn) [Compound 1-42] |  | 0 |  | 20 |  |  |  | 50 |  |  | 20 | 10 | 30 | 100 |  |  | 95 | 30 |  | 70 | Pre-emergence Herbicidal Activity ORYSA (growth controlling degree) ([1]; Rate 125 g a.i./ha): 0%; Pre-emergence Herbicidal Activity TRZAX (growth controlling degree) ([3]; Rate 125 g a.i./ha): 0%; Pre-emergence Herbicidal Activity SETVI (growth controlling degree) ([5]; Rate 125 g a.i./ha): 0%; Pre-emergence Herbicidal Activity SIDSP (growth controlling degree) ([6]; Rate 125 g a.i./ha): 0%; Pre-emergence Herbicidal Activity DIGSP (growth controlling degree) ([7]; Rate 125 g a.i./ha): 0%; Pre-emergence Herbicidal Activity AMARE (growth controlling degree) ([9]; Rate 125 g a.i./ha): 0%; Pre-emergence Herbicidal Activity ZEAMX (growth controlling degree) ([10]; Rate 125 g a.i./ha): 0%; Pre-emergence Herbicidal Activity ECHCG (growth controlling degree) ([15]; Rate 125 g a.i./ha): 0%; Pre-emergence Herbicidal Activity GLXMA (growth controlling degree) ([16]; Rate 125 g a.i./ha): 0%; Pre-emergence Herbicidal Activity ABUTH (growth controlling degree) ([19]; Rate 125 g a.i./ha): 0%
4 | COc1c(Cl)cc(F)c(-c2nn(C)c(OC(F)F)c2Cl)c1NC(=O)C(C)=Cc1ccccc1 [Compound 1-251] | 10 | 10 | 0 | 10 | 20 | 20 | 20 | 60 | 100 | 0 | 20 | 40 | 70 | 100 | 0 | 0 | 95 | 60 | 30 | 95 | 
5 | COc1c(Cl)cc(F)c(-c2nn(C)c(OC(F)F)c2Cl)c1NC(=O)C=Cc1ccccc1C [Compound 1-253] | 10 | 40 | 0 | 70 | 50 | 30 | 70 | 100 | 100 | 0 | 50 | 80 | 30 | 100 | 20 | 0 | 100 | 80 | 40 | 100 | 
6 | COc1c(Cl)cc(F)c(-c2nn(C)c(OC(F)F)c2Cl)c1NC(=O)C=Cc1cccc(C)c1 [Compound 1-254] | 20 | 30 | 0 | 90 | 50 | 60 | 60 | 95 | 100 | 0 | 30 | 70 | 60 | 100 | 60 | 0 | 100 | 80 | 50 | 100 | 
